Source: patent US20100255469A1, “Cell monitoring and molecular analysis” (priority 2008, published 2010)

How the values were obtained:
MCF-7 cells [1] = assay: Impedance-based real time cell analysis (XCELLIGENCE) of MCF-7 cells treated with Paclitaxel; design: species or system human; conditions: 12.5 nM Paclitaxel
Description: In this example, we have investigated gene expression profiles of human MCF-7 breast cancer cells (human adenocarcinoma breast cancer cell line) obtained from ATCC (passage number: 15, cell number: 5000 cells per well), maintained in MEM (32360, Gibco)+10% FCS (30-3702, PAN)+Na-Pyruvat (PO4-43100, PAN)+Nonessential amino acids (P08-32100, PAN) at time points that are indicated by changes in cell characteristics as visualized by changes of impedance (cell indices) measurements upon drug addition. Accordingly, gene expression profiles were determined at 6 h, 24 h, 72 h and 147 h upon Paclitaxel administration. […] It includes genes involved in various biological functions such as cell cycle regulation and cell proliferation, apoptosis, signal transduction and transcriptional regulation, fatty acid and sterol metabolism and IFN-mediated signaling (Bani, M., R., et al., Molecular Cancer Therapeutics 3(2) (2004) 111-121). With respect to the two time points (6 h and 24 h upon drug administration) microarray studies had been performed by other groups and we were able to reproduce 70% of their results (Bani, M., R., et al., Molecular Cancer Therapeutics 3(2) (2004) 111-121). In addition, we determined mRNA levels at two additional time points (72 h and 147 h upon drug administration) during prolonged drug exposure of cells.
Procedure: Seeding, Growth. […]
5000 MCF-7 cells were seeded per well and 24 h later treated with a final concentration of 12.5 nM Paclitaxel (dissolved in DMSO). […] The Paclitaxel concentration we applied in this experiment represents twice the IC50-value of this drug for MCF-7 cells and had been determined in an dose-response experiment (Paclitaxel titration) with the XCELLIGENCE system and an appropriate tool of the XCELLIGENCE software SP1.0.0.0807 (data not shown).

MCF-7 cells [2] = assay: Gene expression profiling by q-RT-PCR (LIGHTCYCLER 480) of Paclitaxel-treated MCF-7 cells; assay type: cell-based, human
Procedure: We have performed gene expression profiling experiments of MCF-7 cells treated with Paclitaxel for a period of approximately 150 h. Within this example the gene expression of 20 different genes (gene accession numbers in brackets) were monitored:
We intended to determine and reproduce gene expression changes with time upon drug treatment, the majority of which had been observed and described before by others in an independent in vivo-study based on DNA microarray technique using ovarian carcinoma xenografts ([…], M., R., et al., Molecular Cancer Therapeutics 3(2) (2004) 111-121; Boschke, C., B., et al., Uni Tubingen (2008)). The time points for our pharmacokinetic screens have been chosen depending on cellular changes in response to Paclitaxel-treatment which were monitored by impedance-based real time cell analysis using the XCELLIGENCE system. Independent from the quality and extent of these cellular changes we harvested non-treated controls and drug-treated cells at their appropriate time points (6, 24, 72 and 147 h), isolated the mRNA by means of the MAGNA PURE System, reverse transcribed the total mRNA into cDNA using a common Thermocycler, pooled and diluted the cDNA samples and amplified the predefined set of specific genes as well as house keeping genes in triplicates by q-RT-PCR making use of the LIGHTCYCLER 480 System. Necessary primer pairs were synthesized and tested for functionality in-house in combination with a bioinformatically determined UPL probe (data not shown). The LIGHTCYCLER software 1.5 allowed the relative quantification of the selected mRNA abundance under Paclitaxel-treated conditions with respect to the corresponding non-treated situation (reference). Results are corrected by the values determined for internal standard genes (stably expressed house keeping genes), like β-Actin, β-Globin and GAPDH. […]

HT29 cells [3] = assay: Cell Index monitoring (XCELLIGENCE RTCA SP) of HT29 cells treated with paclitaxel; assay type: cell-based; conditions: 50 nM paclitaxel
Procedure: HT29 cells were cultivated in parallel in McCoy's medium in either T75 cell culture bottles (for RNA isolation) or an E-Plate 96 (for cell growth monitoring) and in three regular microtiter plates (for WST-1 assay).
The surface of the bottom of a single well of the E-Plate 96 is given with approx. 0.2 cm^2. T75 cell culture bottles have 75 cm^2.
After 24 hours incubation at 37° C. paclitaxel was added to a final concentration of 50 nM. As the 2 mM paclitaxel stock was dissolved in DMSO, control cells were treated with DMSO to a final concentration of 0.0025%. In addition cells treated with medium only were monitored in parallel.
All cells were further incubated at 37° C. The growth of the cells was monitored real time on the RTCA SP Station over the whole course of the experiment (FIG. 3).
To ensure that untreated cells are within the early logarithmic growth phase at the time point of paclitaxel treatment, cells were treated with 50 nM paclitaxel at approx. ⅓ of their maximum Cell Index at 20 hours after seeding.

HT29 cells [4] = assay: qPCR with RealTime Ready Human Apoptosis Panel, 96 in paclitaxel-treated HT29 cells; assay type: cell-based
Procedure: (§1) Cells were harvested for RNA isolation after one, two, four and 24 hours. Cell number was determined and portions of 10^6 cells were used for RNA isolation applying the High Pure RNA Isolation Kit following the manufacturer's instruction.
(§2) From each RNA population 1 μg total RNA was used for cDNA synthesis with the Transcriptor First Strand cDNA Synthesis Kit.
(§3) The total yield of one cDNA synthesis reaction starting from 1 μg RNA was used as template for each RealTime ready Human Apoptosis Panel, 96 or RealTime ready Human Cell Cycle Panel, 96. Total PCR reaction volume per well was 20 μl with Light Cycler480 Probes Master. The easy-to-use macro for the panel containing PCR protocol, sample setup and analysis was applied on LIGHTCYCLER480 software 1.5.
(§4) Four time points, one, two, four and twenty four hours were selected for qPCR runs on the LIGHTCYCLER480 system using the RealTime Ready Human Apoptosis Panel, 96 (FIG. 5) and the RealTime Ready Human Cell Cycle Panel, 96 (FIG. 7). Gene names corresponding to the numbers that can be found in the package insert of both panels (Roche Applied Science).

HT29 cells [5] = assay: qPCR with RealTime Ready Human Cell Cycle Panel, 96 in paclitaxel-treated HT29 cells; assay type: cell-based; conditions: 50 nM paclitaxel vs DMSO control; time points 1, 2, 4, 24 hours
Procedure: as §1, §2, §3, §4

CC(=O)O[C@H]1C(=O)[C@@]2(C)[C@H]([C@H](OC(=O)c3ccccc3)[C@]3(O)C[C@H](OC(=O)[C@H](O)[C@@H](NC(=O)c4ccccc4)c4ccccc4)C(C)=C1C3(C)C)[C@]1(OC(C)=O)CO[C@@H]1C[C@@H]2O [Paclitaxel]
time upon drug addition at which proliferation curve switches from descending to ascending course (MCF-7 cells [1]): approximately 20 h
course of proliferation curve (impedance / cell index) versus control (MCF-7 cells [1]; control 0.1% DMSO): lower impedance or cell index values
time upon drug treatment at which proliferation curve again begins to descend (MCF-7 cells [1]; descent continues up to ca. 150 h): around 70 h
gene expression changes of investigated genes (MCF-7 cells [2]; 6 h upon drug addition, 12.5 nM Paclitaxel, vs non-treated): only small changes in expression
gene expression changes of selected genes (e.g. CDKN1A, FOS, PIG8, TOP2A, MADH2) (MCF-7 cells [2]; 24 h after Paclitaxel treatment, 12.5 nM): become more obvious
gene expression changes (ISG15, IFITM1, BNIP3, SLUG, ARF-1, CDC2, PLAB, IDI1) (MCF-7 cells [2]; later stages (72 and 147 h) of Paclitaxel treatment, 12.5 nM): strongest gene expression changes
time after treatment to reach minimum Cell Index (HT29 cells [3]): approx. 24 hours
Cell Index (normalized) (HT29 cells [3]; 24 hours after treatment): zero
Cell Index change (HT29 cells [3]; within the first hour after treatment): slightly increased
number of genes significantly (more than 4 times) up/down regulated (HT29 cells [4]; 50 nM paclitaxel vs DMSO control, all time points compared): 6 genes
time of most significant alteration of expression level of apoptosis related genes (HT29 cells [4]; 50 nM paclitaxel vs DMSO control, time points 1, 2, 4, 24 hours): within the first hour
significant gene expression changes compared to DMSO control (HT29 cells [4]; two and four hours after paclitaxel treatment, 50 nM): no genes show significant expression changes
time of most dramatic effects on cell cycle gene expression (HT29 cells [5]): within the first four hours
